Test system: KRAS^G12C PDAC cell lines (MIAPaCa-2, XWR200)
Assay: Long-term clonogenic growth, acquired MAPKi resistance in PDAC cell lines
Assay type: cell-based, human
Settings: combined with MAPKi (type II RAFi+MEKi or KRAS G12Ci+MEKi); FIG. 6A to 6F
Source text: FIGS. 6A-6J. DNA-PKi co-treatment prevents acquired MAPKi-resistance in KRAS^G12 human pancreatic ductal adenocarcinoma and non-small cell lung carcinoma cell lines. FIGS. 6A to 6J: Long-term clonogenic growth of PDAC (MIAPaCa-2, XWR200) (6A to 6F) or NSCLC (H358, H2122) (6G to 6J) cell lines showing acquired-resistant colonies to MEKi alone, type II RAFi+MEKi, or KRAS G12Ci+MEKi and their suppression by indicated co-treatments with DNA-PKi (NU7026) and/or PARPi (ABT888) at indicated concentrations. Top, representative cultures; bottom, quantifications over n=4 fields (mean±SD). Data representative of 2 independent repeats. Seeding densities (cells/well in 6-well dishes) and culture durations: MIAPaCa-2 (10,000; 30 days for 6A-6C), XWR200 (150,000; 23 days for 6D, 30 days for 6E, 26 days for 6F), H358 (40,000; 14 days for 6G, 29 days for 6H, 26 days for 6I), H2122 (20,000, 22 days for 6J). […]
For clonogenic assay, cells were plated at indicated cell densities in six-well plates and treated with inhibitor(s) the next day. […] Formazan was then dissolved in 100 μL DMSO, and the absorbance values were measured using an ELISA reader (SpectraMax Plus 384) at the wavelength of 570 nm, blanked with DMSO solution. […]

SMILES	suppression of acquired MAPKi resistance, number of PDAC cell lines
O=c1cc(N2CCOCC2)oc2c1ccc1ccccc12 [NU7026]	two of two
C[C@]1(c2nc3c(C(N)=O)cccc3[nH]2)CCCN1 [ABT888, veliparib]	generally ineffective
